# According to patent US8003648B2, “Heterocyclic GPR40 modulators” (Amgen Inc., priority 2006, dated 2011):
# Target: T1, human GPR40 (Homo sapiens, UniProt O14842)
# T1 construct: host or cells: CHO cells
# Test: Cell-based aequorin assay using human GPR40
# Settings: activation of human GPR40; CHO cells stably transfected with GPR40 and Aequorin; 0.01% HSA; aequorin luminescence
# Experimental: Cell-based aequorin assays were employed to characterize the modulatory activity of compounds on the GPR40 signaling pathway. In an exemplary assay, CHO cells were stably transfected with both GPR40 and Aequorin (Euroscreen). Cells were detached from the tissue culture dish with 2 mL of trypsin (0.25% (w/v)). Trypsinization was halted with 28 mL of Hanks Buffered Salt Solution containing 20 mM Hepes (H/HBSS) and 0.01% fatty acid-free human serum albumin (HSA). Coelantrazine is added to 1 ug/mL, and the cells were incubated for 2 hours at room temperature. Compounds were dissolved in DMSO for preparation of 10 mM stock solutions. Compounds were diluted in H/HBSS containing 0.01% HSA. Serial dilutions of the test compounds were prepared to determine dose response.
# Aequorin luminescence measurements were made using an EG&G Berthold 96-well luminometer, and the response was measured over a 20 second interval after cells and compounds were mixed. The maximum relative light units was plotted to determine dose response. The EC50 (effective concentration to reach 50% maximal response) was determined from the dose response plot.
# Table 1 presents representative data (EC50 values) obtained for exemplary compounds of the invention for the activation of human GPR40. […]
# T1 sequence (O14842 whole entry): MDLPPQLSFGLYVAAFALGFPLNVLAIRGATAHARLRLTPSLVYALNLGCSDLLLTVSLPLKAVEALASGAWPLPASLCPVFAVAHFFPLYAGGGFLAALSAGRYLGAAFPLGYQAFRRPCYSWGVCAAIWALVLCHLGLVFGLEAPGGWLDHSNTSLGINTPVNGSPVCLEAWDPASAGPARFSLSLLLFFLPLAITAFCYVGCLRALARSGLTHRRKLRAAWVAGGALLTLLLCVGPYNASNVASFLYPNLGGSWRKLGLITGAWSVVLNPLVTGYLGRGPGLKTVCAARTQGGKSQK
row,SMILES,EC50 [nM]
1,O=C(O)C[C@@H](c1ccc(OCc2nc(-c3ccc(Cl)cc3)no2)cc1)c1ccon1 [Example 69],1000 to 10000
2,CC(C)(C)c1ccc(-c2noc(COc3ccc([C@H](CC(=O)O)c4ccon4)cc3)n2)cc1 [Example 70],100 to 1000
3,O=C(O)C[C@@H](c1ccc(OCc2nc(-c3c(Cl)cccc3Cl)no2)cc1)c1ccon1 [Example 71],1000 to 10000
4,"Cc1nc(-c2cccc(C(F)(F)F)c2)sc1COc1ccc([C@H](CC(=O)O)c2ccon2)cc1 [Example 72, (3S)-3-(Isoxazol-3-yl)-3-(4-((4-methyl-2-(3-(trifluoromethyl)phenyl)thiazol-5-yl)methoxy)phenyl)propanoic acid]",10 to 100
5,"CCCCOc1ccc(-c2nc(C)c(COc3ccc([C@H](CC(=O)O)c4ccon4)cc3)s2)cc1F [Example 75, (3S)-3-(4-((2-(4-Butoxy-3-fluorophenyl)-4-methylthiazol-5-yl)methoxy)phenyl)-3-(isoxazol-3-yl)propanoic acid]",10 to 100
6,Cc1nc(-c2ccc(C(C)(C)C)cc2)sc1COc1ccc([C@H](CC(=O)O)c2ccon2)cc1 [Example 76],10 to 100
7,CCCCc1ccc(-c2nc(C)c(COc3ccc([C@H](CC(=O)O)c4ccon4)cc3)s2)cc1 [Example 77],10 to 100
8,Cc1nc(-c2ccc(CC(C)C)cc2)sc1COc1ccc([C@H](CC(=O)O)c2ccon2)cc1 [Example 78],10 to 100
9,CCCCOc1ccc(-c2nc(C)c(COc3ccc([C@H](CC(=O)O)c4ccon4)cc3)s2)cc1Cl [Example 79],10 to 100
10,CCCOc1c(C)cc(-c2nc(C)c(COc3ccc([C@H](CC(=O)O)c4ccon4)cc3)s2)cc1C [Example 80],10 to 100
11,Cc1nc(-c2ccc(OC(C)C)c(Cl)c2)sc1COc1ccc([C@H](CC(=O)O)c2ccon2)cc1 [Example 81],10 to 100
12,CC12CCC(c3nc(COc4ccc([C@H](CC(=O)O)c5ccon5)cc4)cnc31)C2(C)C (stereo partly shown) [Example 82],1000 to 10000
13,CC12CCC(c3ncc(COc4ccc([C@H](CC(=O)O)c5ccon5)cc4)nc31)C2(C)C (stereo partly shown) [Example 83],1000 to 10000
